Source: US20050222229A1, “Fungicidal mixtures” (priority 2002, published 2005)

Test system: Plasmopara viticola
Experiment: Persistency against peronospora of grapevine caused by Plasmopara viticola (potted grapevines, inoculation 3 days after spraying)
Assay type: in vivo
Conditions: grapevine Müller-Thurgau, inoculated 3 days after treatment
Experimental: The active compounds, separately or together, were formulated as a stock solution comprising 0.25% by weight of active compound in acetone or DMSO. 1% by weight of the emulsifier Uniperol® EL (wetting agent having emulsifying and dispersing action based on ethoxylated alkylphenols) was added to the solution, and the mixture was diluted with water to the desired concentration.
Use example: Persistency against peronospora of grapevine caused by Plasmopara viticola.
Leaves of potted grapevines of the cultivar “Müller-Thurgau” were sprayed to run off point with an aqueous suspension having the concentration of active compound stated below. To be able to assess the persistency of the substances, the plants were, after the spray coating had dried on, placed in a greenhouse for 3 days. Only then were the leaves inoculated with an aqueous zoospore suspension of Plasmopara viticola. The grapevines were then initially placed in a water-vapor-saturated chamber at 24° C. for 48 hours and then in a greenhouse at temperatures between 20 and 30° C. for 5 days. After this period of time, the plants were, to promote sporangiophore eruption, again placed in a humid chamber for 16 hours. The extent of the development of the infection on the undersides of the leaves was then determined visually.
for evaluation, the visually determined values for the percentages of infected leaf area were converted into efficacies in. % of the untreated control.
The efficacy (E) is calculated as follows using Abbot's formula: E=(1−α/β)·100 • α corresponds to the fungal infection of the treated plants in % and • β corresponds to the fungal infection of the untreated (control) plants in %
An efficacy of 0 means that the infection level of the treated plants corresponds to that of the untreated control plants; an efficacy of 100 means that the treated plants were not infected.
The expected efficacies of the active compound mixtures are determined using Colby's formula [R. S. Colby, Weeds 15, 20-22 (1967)] and compared with the observed efficacies. Colby's formula: E=x+y−x·y/100 • E expected efficacy, expressed in % of the untreated control, when using the mixture of the active compounds A and B at the concentrations a and b • x efficacy, expressed in % of the untreated control, when using active compound A at a concentration of a
y efficacy, expressed in % of the untreated control, when using active compound B at a concentration of b

[1] = 0.375 ppm active compound in the spray liquor
[2] = 0.75 ppm active compound in the spray liquor
[3] = 1.5 ppm active compound in the spray liquor
[4] = 3 ppm active compound in the spray liquor
[5] = 6 ppm active compound in the spray liquor

| Structure (SMILES) | Efficacy in % of the untreated control (3.75 ppm active compound in the spray liquor) | Efficacy in % of the untreated control (7.5 ppm active compound in the spray liquor) | Efficacy in % of the untreated control (15 ppm active compound in the spray liquor) | Efficacy in % of the untreated control [1] | Efficacy in % of the untreated control [2] | Efficacy in % of the untreated control [3] | Efficacy in % of the untreated control [4] | Efficacy in % of the untreated control [5] |
| --- | --- | --- | --- | --- | --- | --- | --- | --- |
| N#Cc1sc2c(=O)c3ccccc3c(=O)c=2sc1C#N [II, dithianon] | 0% | 20% | 32% | – | – | – | – | – |
| CSC1=N[C@@](C)(c2ccccc2)C(=O)N1Nc1ccccc1 [Ia, fenamidone] | – | – | – | 66% | 77% | 93% | 89% | 94% |
| CC1(c2ccc(Oc3ccccc3)cc2)OC(=O)N(Nc2ccccc2)C1=O (stereo not shown) [Ib, famoxadone] | – | – | – | 0% | 77% | 83% | 89% | 89% |
